Like-named read-outs stand apart in the source and are kept apart here.
Columns and labels:
FGFR1 = target: T1, FGFR1 (Homo sapiens, UniProt P11362); experiment: Kinase binding assay (kinase-tagged T7 phage, affinity beads, qPCR), Kd
T1 construct: made in house; host or cells: E. coli (BL21-derived), T7 phage
Outline: (§1)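 Phage-tagged kinase capture on small-molecule affinity resin, compound competition, qPCR quantitation; Kd from Levenberg-Marquardt Hill fit.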

FGFR2 = target: T2, FGFR2 (Homo sapiens, UniProt P21802); experiment: as above
T2 construct: made in house; host or cells: E. coli (BL21-derived), T7 phage
T2 sequence (P21802 22-821): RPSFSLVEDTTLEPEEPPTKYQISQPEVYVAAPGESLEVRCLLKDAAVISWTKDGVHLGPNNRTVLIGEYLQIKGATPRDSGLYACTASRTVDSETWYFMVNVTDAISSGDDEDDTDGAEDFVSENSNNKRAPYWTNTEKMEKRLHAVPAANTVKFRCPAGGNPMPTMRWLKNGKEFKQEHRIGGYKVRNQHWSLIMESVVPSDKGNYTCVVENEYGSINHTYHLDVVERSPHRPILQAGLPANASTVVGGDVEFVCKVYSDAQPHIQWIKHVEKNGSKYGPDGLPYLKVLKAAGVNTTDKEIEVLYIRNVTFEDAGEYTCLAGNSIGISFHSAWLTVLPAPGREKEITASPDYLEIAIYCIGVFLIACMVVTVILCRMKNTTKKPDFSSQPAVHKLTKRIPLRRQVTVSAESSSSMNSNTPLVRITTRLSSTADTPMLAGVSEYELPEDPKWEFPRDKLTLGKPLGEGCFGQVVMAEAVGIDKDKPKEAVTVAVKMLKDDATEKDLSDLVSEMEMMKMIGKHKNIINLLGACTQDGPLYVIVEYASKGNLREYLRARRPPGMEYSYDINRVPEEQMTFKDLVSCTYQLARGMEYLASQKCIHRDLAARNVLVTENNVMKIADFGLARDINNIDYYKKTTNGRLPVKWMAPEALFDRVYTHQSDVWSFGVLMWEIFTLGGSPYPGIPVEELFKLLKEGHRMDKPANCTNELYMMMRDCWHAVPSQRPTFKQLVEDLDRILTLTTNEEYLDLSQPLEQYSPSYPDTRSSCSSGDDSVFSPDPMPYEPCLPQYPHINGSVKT
Outline: as §1

FGFR3 = target: T3, FGFR3 (Homo sapiens, UniProt P22607); experiment: as above
T3 construct: made in house; host or cells: E. coli (BL21-derived), T7 phage
T3 sequence (P22607 23-806): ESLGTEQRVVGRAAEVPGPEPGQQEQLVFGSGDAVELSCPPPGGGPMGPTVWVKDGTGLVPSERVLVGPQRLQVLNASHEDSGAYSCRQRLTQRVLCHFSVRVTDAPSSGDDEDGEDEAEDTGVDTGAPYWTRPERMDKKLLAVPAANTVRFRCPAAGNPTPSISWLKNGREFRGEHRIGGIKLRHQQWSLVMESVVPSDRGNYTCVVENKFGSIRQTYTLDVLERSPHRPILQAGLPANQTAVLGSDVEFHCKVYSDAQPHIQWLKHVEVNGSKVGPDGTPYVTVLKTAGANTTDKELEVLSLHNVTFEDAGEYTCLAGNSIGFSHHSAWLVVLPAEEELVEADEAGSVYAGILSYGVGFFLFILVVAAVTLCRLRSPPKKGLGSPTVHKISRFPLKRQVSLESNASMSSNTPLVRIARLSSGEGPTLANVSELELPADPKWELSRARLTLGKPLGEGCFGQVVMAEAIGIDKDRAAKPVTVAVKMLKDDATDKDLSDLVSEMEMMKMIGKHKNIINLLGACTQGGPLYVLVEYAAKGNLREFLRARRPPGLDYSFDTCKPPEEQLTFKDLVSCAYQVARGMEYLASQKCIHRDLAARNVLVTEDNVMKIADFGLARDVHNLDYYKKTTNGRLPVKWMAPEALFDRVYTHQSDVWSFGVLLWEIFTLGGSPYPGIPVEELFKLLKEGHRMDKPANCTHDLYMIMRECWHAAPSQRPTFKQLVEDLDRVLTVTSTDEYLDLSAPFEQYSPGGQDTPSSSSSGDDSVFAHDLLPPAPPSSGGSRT
Outline: as §1

FGFR3 (V555M) = target: T4, FGFR3 (V555M) (Homo sapiens, UniProt P22607, V555M); experiment: as above
T4 construct: made in house; host or cells: E. coli (BL21-derived), T7 phage
T4 sequence (P22607 23-806 V555M): as the sequence (P22607 23-806) above, with V533M counted along it
Outline: as §1

FGFR4 = target: T5, FGFR4 (Homo sapiens, UniProt P22455); experiment: as above
T5 construct: made in house; host or cells: E. coli (BL21-derived), T7 phage
T5 sequence (P22455 22-802): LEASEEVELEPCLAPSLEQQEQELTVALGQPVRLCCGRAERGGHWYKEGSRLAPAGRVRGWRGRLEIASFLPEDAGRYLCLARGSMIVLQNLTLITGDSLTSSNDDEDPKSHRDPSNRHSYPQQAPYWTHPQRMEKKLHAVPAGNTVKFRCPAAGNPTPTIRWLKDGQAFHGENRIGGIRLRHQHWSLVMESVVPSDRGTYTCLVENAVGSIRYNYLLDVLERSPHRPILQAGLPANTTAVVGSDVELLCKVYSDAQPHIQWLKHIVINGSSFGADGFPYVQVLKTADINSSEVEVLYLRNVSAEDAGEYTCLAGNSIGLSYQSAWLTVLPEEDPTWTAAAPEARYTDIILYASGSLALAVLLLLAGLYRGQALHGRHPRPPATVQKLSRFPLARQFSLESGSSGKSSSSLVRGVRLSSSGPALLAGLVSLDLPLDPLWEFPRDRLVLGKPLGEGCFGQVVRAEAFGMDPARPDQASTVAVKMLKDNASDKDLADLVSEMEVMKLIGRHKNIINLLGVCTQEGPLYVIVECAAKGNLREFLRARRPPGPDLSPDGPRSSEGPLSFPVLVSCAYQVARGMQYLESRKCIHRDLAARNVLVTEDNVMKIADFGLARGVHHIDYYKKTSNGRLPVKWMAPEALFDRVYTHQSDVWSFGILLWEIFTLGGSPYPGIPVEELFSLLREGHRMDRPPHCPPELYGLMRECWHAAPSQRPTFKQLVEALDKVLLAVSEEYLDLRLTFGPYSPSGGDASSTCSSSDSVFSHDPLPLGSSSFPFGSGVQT
Outline: as §1

[1] = test system: KATO-III cell line (FGFR2 amplification); experiment: Cancer cell line cell viability assay (Cell Titer-Glo), 72 hr; format: cell-based; settings: Homo sapiens
Outline: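 5,000-20,000 cells/well o/n; cpd 9-pt 4x dil from 3 μM, n=3; 37° C/5% CO2; CTG 2.0 lumi; % DMSO ctrl; 4PL IC50.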

[2] = test system: KG-1 cell line (FGFR 1-fusion); experiment: as above; format: cell-based; settings: Homo sapiens
Outline: (§2)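 Cells seeded at 5,000-20,000/well, incubated overnight, then treated with a 9-dose, 4-fold dilution series from 3 μM in triplicate at 37° C, 5% CO2. Viability read by Cell Titer-Glo 2.0 luminescence as percent of DMSO control; IC50 from 4-parameter variable-slope sigmoidal fit.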

[3] = test system: RT112/84 cell line (FGFR3-fusion); experiment: as above; format: cell-based; settings: Homo sapiens
Outline: as §2

[4] = V555M mutant, read-out: FGFR3 (V555M) (Kd nM)
[5] = KG-1, KG-1 cell line (FGFR1-fusion)
[6] = RT112/84, RT112/84 cell line (FGFR3-fusion)

T1 sequence (P11362 22-822): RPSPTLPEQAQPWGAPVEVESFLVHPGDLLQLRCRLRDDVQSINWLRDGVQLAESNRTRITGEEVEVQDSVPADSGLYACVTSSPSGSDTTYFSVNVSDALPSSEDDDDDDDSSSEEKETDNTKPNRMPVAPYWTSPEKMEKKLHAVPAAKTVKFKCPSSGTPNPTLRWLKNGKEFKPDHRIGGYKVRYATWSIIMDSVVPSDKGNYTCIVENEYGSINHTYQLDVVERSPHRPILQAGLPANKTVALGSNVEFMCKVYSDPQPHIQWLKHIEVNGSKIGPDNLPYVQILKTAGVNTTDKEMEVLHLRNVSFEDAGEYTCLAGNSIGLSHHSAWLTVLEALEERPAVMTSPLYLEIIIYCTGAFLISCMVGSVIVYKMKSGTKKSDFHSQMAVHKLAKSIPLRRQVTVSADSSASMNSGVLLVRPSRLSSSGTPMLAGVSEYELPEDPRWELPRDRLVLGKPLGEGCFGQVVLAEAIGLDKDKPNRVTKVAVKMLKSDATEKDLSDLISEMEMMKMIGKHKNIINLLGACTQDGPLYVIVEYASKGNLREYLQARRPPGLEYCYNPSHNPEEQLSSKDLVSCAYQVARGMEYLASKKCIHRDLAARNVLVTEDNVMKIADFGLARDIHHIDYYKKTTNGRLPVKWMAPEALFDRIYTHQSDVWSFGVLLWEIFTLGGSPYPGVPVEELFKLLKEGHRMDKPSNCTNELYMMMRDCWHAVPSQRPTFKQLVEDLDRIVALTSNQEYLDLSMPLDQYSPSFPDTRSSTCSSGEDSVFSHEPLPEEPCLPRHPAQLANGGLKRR

SMILES: COc1cc2[nH]nc(-c3ccc(N4CC(C)(N[C@@H]5CCOC5)C4)nc3)c2cc1O[C@H](C)c1c(Cl)cncc1Cl [Example 73, 1-(5-(5-((R)-1-(3,5-dichloropyridin-4-yl)ethoxy)-6-methoxy-1H-indazol-3-yl)pyridin-2-yl)-3-methyl-N-((R)-tetrahydrofuran-3-yl)azetidin-3-amine]
- Kd (FGFR1; read-out: FGFR1 (Kd nM)): 1 to 50 nM
- Kd (FGFR2; read-out: FGFR2 (Kd nM)): 1 to 50 nM
- Kd (FGFR3; read-out: FGFR3 (Kd nM)): 1 to 50 nM
- Kd (FGFR3 (V555M); [4]): 1 to 50 nM
- Kd (FGFR4; read-out: FGFR4 (Kd nM)): 1 to 50 nM
- IC50 ([1]; KATO III): 0.1 to 50 nM
- IC50 [2, 5]: 0.1 to 50 nM
- IC50 [3, 6]: 0.1 to 50 nM

SMILES: C[C@@H](Oc1ccc2[nH]nc(-c3cnc(N4CC(C)(CN5CCOCC5)C4)c(F)c3)c2c1)c1c(Cl)cncc1Cl [Example 109, (R)-4-((1-(5-(5-(1-(3,5-dichloropyridin-4-yl)ethoxy)-1H-indazol-3-yl)-3-fluoropyridin-2-yl)-3-methylazetidin-3-yl)methyl)morpholine]
- Kd (FGFR1; read-out: FGFR1 (Kd nM)): 1 to 50 nM
- Kd (FGFR2; read-out: FGFR2 (Kd nM)): 1 to 50 nM
- Kd (FGFR3; read-out: FGFR3 (Kd nM)): 1 to 50 nM
- Kd (FGFR3 (V555M); [4]): 1 to 50 nM
- Kd (FGFR4; read-out: FGFR4 (Kd nM)): 1 to 50 nM
- IC50 ([1]; KATO III): 50 to 200 nM
- IC50 [2, 5]: 50 to 200 nM
- IC50 [3, 6]: 0.1 to 50 nM

SMILES: C[C@@H](Oc1ccc2[nH]nc(-c3cnc(N4CC(C)(N5CC(C)(O)C5)C4)c(F)c3)c2c1)c1c(Cl)cncc1Cl [Example 96, (R)-1′-(5-(5-(1-(3,5-dichloropyridin-4-yl)ethoxy)-1H-indazol-3-yl)-3-fluoropyridin-2-yl)-3,3′-dimethyl-[1,3′-biazetidin]-3-ol]
- Kd (FGFR1; read-out: FGFR1 (Kd nM)): 1 to 50 nM
- Kd (FGFR2; read-out: FGFR2 (Kd nM)): 1 to 50 nM
- Kd (FGFR3; read-out: FGFR3 (Kd nM)): 1 to 50 nM
- Kd (FGFR3 (V555M); [4]): 1 to 50 nM
- Kd (FGFR4; read-out: FGFR4 (Kd nM)): 1 to 50 nM
- IC50 ([1]; KATO III): 0.1 to 50 nM
- IC50 [2, 5]: 0.1 to 50 nM
- IC50 [3, 6]: 0.1 to 50 nM

SMILES: CCN(CC)C1(C)CN(c2ccc(-c3n[nH]c4ccc(O[C@H](C)c5c(Cl)cnc(C)c5Cl)cc34)cn2)C1 [Example 72, 1-[5-[5-[(1R)-1-(3,5-dichloro-2-methyl-4-pyridyl)ethoxy]-1H-indazol-3-yl]-2-pyridyl]-N,N-diethyl-3-methyl-azetidin-3-amine]
- Kd (FGFR1; read-out: FGFR1 (Kd nM)): 1 to 50 nM
- Kd (FGFR2; read-out: FGFR2 (Kd nM)): 1 to 50 nM
- Kd (FGFR3; read-out: FGFR3 (Kd nM)): 1 to 50 nM
- Kd (FGFR3 (V555M); [4]): 1 to 50 nM
- Kd (FGFR4; read-out: FGFR4 (Kd nM)): 1 to 50 nM
- IC50 ([1]; KATO III): 50 to 200 nM
- IC50 [2, 5]: 200 to 1000 nM
- IC50 [3, 6]: 0.1 to 50 nM

SMILES: COP(=O)(CC1(C)CN(c2ncc(-c3n[nH]c4ccc(O[C@H](C)c5c(Cl)cncc5Cl)cc34)cc2F)C1)OC [Example 215, (R)-dimethyl ((1-(5-(5-(1-(3,5-dichloropyridin-4-yl)ethoxy)-1H-indazol-3-yl)-3-fluoropyridin-2-yl)-3-methylazetidin-3-yl)methyl)phos-phonate]
- Kd (FGFR1): 1 to 50 nM
- Kd (FGFR2; FGFR2 (Kd nM)): 1 to 50 nM
- Kd (FGFR3): 1 to 50 nM
- Kd (FGFR3 (V555M)): 1 to 50 nM
- Kd (FGFR4): 1 to 50 nM
- IC50 [1]: 50 to 200 nM
- IC50 ([2]; KG-1 cell line (FGFR1-fusion)): 50 to 200 nM
- IC50 ([3]; RT112/84 cell line (FGFR3-fusion)): 0.1 to 50 nM

SMILES: C[C@H](O)CNC1(C)CN(c2ncc(-c3n[nH]c4ccc(O[C@H](C)c5c(Cl)cncc5Cl)cc34)cc2F)C1 [Example 112, (S)-1-((1-(5-(5-((R)-1-(3,5-dichloropyridin-4-yl)ethoxy)-1H-indazol-3-yl)-3-fluoropyridin-2-yl)-3-methylazetidin-3-yl)amino)propan-2-ol]
- Kd (FGFR1; read-out: FGFR1 (Kd nM)): 1 to 50 nM
- Kd (FGFR2; read-out: FGFR2 (Kd nM)): 1 to 50 nM
- Kd (FGFR3; read-out: FGFR3 (Kd nM)): 1 to 50 nM
- Kd (FGFR3 (V555M); [4]): 1 to 50 nM
- Kd (FGFR4; read-out: FGFR4 (Kd nM)): 1 to 50 nM
- IC50 ([1]; KATO III): 0.1 to 50 nM
- IC50 [2, 5]: 0.1 to 50 nM
- IC50 [3, 6]: 0.1 to 50 nM

SMILES: C[C@H]1CN(C2(C)CN(c3ccc(-c4n[nH]c5ccc(O[C@H](C)c6c(Cl)cncc6Cl)cc45)cn3)C2)CCO1 [Example 212, (S)-4-(1-(5-(5-((R)-1-(3,5-dichloropyridin-4-yl)ethoxy)-1H-indazol-3-yl)pyridin-2-yl)-3-methylazetidin-3-yl)-2-methylmorpholine]
- Kd (FGFR1; read-out: FGFR1 (Kd nM)): 1 to 50 nM
- Kd (FGFR2; read-out: FGFR2 (Kd nM)): 1 to 50 nM
- Kd (FGFR3; read-out: FGFR3 (Kd nM)): 1 to 50 nM
- Kd (FGFR3 (V555M); [4]): 1 to 50 nM
- Kd (FGFR4; read-out: FGFR4 (Kd nM)): 1 to 50 nM
- IC50 ([1]; KATO III): 0.1 to 50 nM
- IC50 [2, 5]: 50 to 200 nM
- IC50 [3, 6]: 0.1 to 50 nM

SMILES: C[C@@H](Oc1ccc2[nH]nc(-c3cnc(N4CC(C)(N5CC6CC(C5)O6)C4)c(F)c3)c2c1)c1c(Cl)cncc1Cl [Example 217, 3-(1-(5-(5-((R)-1-(3,5-dichloropyridin-4-yl)ethoxy)-1H-indazol-3-yl)-3-fluoropyridin-2-yl)-3-methylazetidin-3-yl)-6-oxa-3-aza-bicyclo[3.1.1]hep-tane]
- Kd (FGFR1; read-out: FGFR1 (Kd nM)): 1 to 50 nM
- Kd (FGFR2; read-out: FGFR2 (Kd nM)): 1 to 50 nM
- Kd (FGFR3; read-out: FGFR3 (Kd nM)): 1 to 50 nM
- Kd (FGFR3 (V555M); [4]): 1 to 50 nM
- Kd (FGFR4; read-out: FGFR4 (Kd nM)): 1 to 50 nM
- IC50 ([1]; KATO III): 0.1 to 50 nM
- IC50 [2, 5]: 50 to 200 nM
- IC50 [3, 6]: 0.1 to 50 nM
